Data reported in US9132106B2, “Synergistic ophthalmic compositions for disinfecting contact lenses” (Abbott Medical Optics Inc., priority 2013, dated 2015).

Tested on: Candida albicans ATCC 10231
Test: Antimicrobial activity, 6 hr log kill of C. albicans
Type: cell-based
Description: The test procedure for testing antimicrobial activity against specified test organisms is as follows: A 10-mL aliquot of test sample was transferred into a single polypropylene test tube. Sterile Dulbecco's Phosphate-Buffered Saline with 0.05 w/v % Polysorbate 80 (DPBST) was transferred into a separate polypropylene test tube and used as a control. All samples and control were stored at 20-25° C. throughout the duration of the test. Test cultures of specified test organisms were cultured and prepared in the conventional manner using Saboraud Dextrose Agar (SDA) as the growth medium. The challenge organism inoculum was adjusted to approximately 1×10e7-1×10e8 CFU/mL in DPBST. Fifty μL of culture inoculum was added to 10.0 mL of each test sample and control, so that the final inoculum level was in the range of 1×10e5 to 1×10e6 CFU (colony forming units) per mL of specified test organism. Contact time intervals for testing activity against the specified test organism were typically within 4 or 6 hours, e.g., 15 minutes, 30 minutes, 45 minutes, 1 hour, 2 hours, 4 hours and 6 hours, to remain within the intended product label instructions for maximum contact lens soak time.
Following incubation, the number of surviving organisms was enumerated by serial dilution and culture on SDA medium. An appropriate neutralizing disinfectant medium was used for performing serial dilutions (e.g. Letheen Neutralizing Broth containing 0.5% Polysorbate 80 media—LetheenT80). Additionally, the numbers of colony-forming-units (CFU) were counted and the Log 10 reduction in viable number calculated for test solutions based on the initial time zero challenge inoculum in the control solution.

[1] = Table II formula, 6 hour soaking

Molecule: CCCCC(CC)CNC(=N)NC(=N)NCCCCCCNC(=N)NC(=N)NCC(CC)CCCC (stereo not drawn) [alexidine]
- log kill from alexidine alone in the same formula (1.05 ppm alexidine, 6 hours, C. albicans): about 1.4 log
- log kill of C. albicans (FIG. 1) (alexidine at 1.00 ppm in Table 1 formula, 6 hour soaking): 1.3 log

Molecule: [H]/N=C(\N/C(=N/[H])NCCCCCCNC(=N)NC(=N)Nc1ccc(Cl)cc1)Nc1ccc(Cl)cc1 [chlorhexidine]
- log kill from chlorhexidine alone in the same formula (5.00 ppm chlorhexidine, 6 hours, C. albicans): about 0.5 log
- chlorhexidine concentration needed to achieve a 2-log kill against C. albicans (FIG. 2) [1]: > 12 ppm
- chlorhexidine concentration needed to achieve a 3-log kill against C. albicans (FIG. 2) [1]: > 15 ppm

Molecule: poly[(dimethyliminio)-2-butene-1,4-diyl chloride], α-[4-[tris(2-hydroxyethyl) ammonio]-2-butenyl]-Ω-[tris(2-hydroxyethyl)ammonio]-dichloride [PQ-1]
- effect of PQ-1 on C. albicans (in words) (in the presence of 0.65% trisodium citrate dihydrate): little effect
